Reference: patent USRE40086E1, “Method for treating bacterial infection with novel 7-substituted-9-substituted amino 6-demethyl-6-deoxytetracyclines” (Wyeth Holdings Corporation, priority 1991, dated 2008)

What was measured:
[1] = tested on: S. aureus IVES 2943 (meth. resistant); assay: MIC, agar dilution; type: cell-based; settings: S. aureus IVES 2943; Table IA; unit assumed
[2] = tested on: S. aureus UBMS 88-4 (Sensitive); assay: MIC, agar dilution; type: cell-based; settings: S. aureus UBMS 88-4; Table IA; unit assumed
[3] = tested on: E. coli UBMS 89-1 (tetM); assay: MIC, agar dilution; type: cell-based; settings: E. coli UBMS 89-1 TetM; Table IA; unit assumed
[4] = tested on: S. aureus NEMC 8769/89-4; assay: MIC, agar dilution (Table IA); type: cell-based; settings: unit assumed
[5] = tested on: E. faecalis 12201; assay: MIC, agar dilution; type: cell-based; settings: Enterococcus 12201; Table IA; unit assumed
[6] = tested on: E. coli UBMS 90-4 (tetM); assay: MIC, agar dilution; type: cell-based; settings: E. coli UBMS 90-4 TetM; Table IA; unit assumed
[7] = tested on: Ps. acruginosa ATCC 27853; assay: MIC, agar dilution (Table IA); type: cell-based; settings: unit assumed
[8] = tested on: E. coli BAJ9003; assay: MIC, agar dilution (Table IA); type: cell-based; settings: unit assumed
[9] = tested on: S. aureus SMITH (sens); assay: In vivo antibacterial evaluation, acute lethal infection in mice; settings: Oral
Text: In Vivo Antibacterial Evaluation (Table VII)

[10] = tested on: E. coli #311 (MP); assay: MIC, agar dilution (Table IA); type: cell-based; settings: unit assumed
[11] = tested on: E. faecalis ATCC 29212; assay: MIC, agar dilution; type: cell-based; settings: E. faecalis ATCC 29212; Table IA; unit assumed
[12] = tested on: E. coli MC4100 TetB; assay: MIC, agar dilution (Table IA); type: cell-based; settings: unit assumed
[13] = tested on: E. coli J3272 TetD; assay: MIC, agar dilution (Table IA); type: cell-based; settings: unit assumed
[14] = tested on: S. mariescens FDOR 8733; assay: MIC, agar dilution (Table IA); type: cell-based; settings: unit assumed
[15] = tested on: E. coli MC4100 Tet sens.; assay: MIC, agar dilution (Table IA); type: cell-based; settings: unit assumed
[16] = tested on: S. aureus ROSE (MP); assay: MIC, agar dilution (Table IA); type: cell-based; settings: unit assumed
[17] = tested on: S. aureus Smith (Sensitive); assay: MIC, agar dilution; type: cell-based; settings: S. aureus SMITH (MP); Table IA; unit assumed
[18] = tested on: E. coli J2175; assay: MIC, agar dilution (Table IA); type: cell-based; settings: unit assumed
[19] = tested on: E. coli PRP1 TetA; assay: MIC, agar dilution (Table IA); type: cell-based; settings: unit assumed
[20] = tested on: S. aureus ATCC 29213 (Sensitive); assay: MIC, agar dilution; type: cell-based; settings: S. aureus ATCC 29213; Table IA; unit assumed
[21] = tested on: E. coli UBMS 89-2 (Sensitive); assay: MIC, agar dilution; type: cell-based; settings: E. coli UBMS 89-2 Tet Sens.; Table IA; unit assumed
[22] = tested on: S. aureus UBMS 88-7 (tetK); assay: MIC, agar dilution; type: cell-based; settings: S. aureus UBMS 88-7 TetK; Table IA; unit assumed
[23] = tested on: S. aureus UBMS 90-3 (Sensitive); assay: MIC, agar dilution; type: cell-based; settings: S. aureus UBMS 90-3; Table IA; unit assumed
[24] = tested on: E. coli UBMS 88-1 (tetB); assay: MIC, agar dilution; type: cell-based; settings: E. coli UBMS 88-1 TetB; Table IA; unit assumed
[25] = tested on: S. aureus IVES 1983 (meth. resistant); assay: MIC, agar dilution; type: cell-based; settings: S. aureus IVES 1983; Table IA; unit assumed
[26] = tested on: S. aureus UBMS 90-1 (tetM); assay: MIC, agar dilution; type: cell-based; settings: S. aureus UBMS 90-1 TetM; Table IA; unit assumed
[27] = tested on: E. coli UBMS 90-5; assay: MIC, agar dilution (Table IA); type: cell-based; settings: unit assumed
[28] = tested on: E. coli ATCC 25922; assay: MIC, agar dilution; type: cell-based; settings: E. coli ATCC 25922; Table IA; unit assumed
[29] = tested on: S. haemolyticus AVAH 88-3; assay: MIC, agar dilution; type: cell-based; settings: S. hemolyticus AVHAH 88-3; Table IA; unit assumed
[30] = tested on: X. maltophilia NEMC 87210; assay: MIC, agar dilution (Table IA); type: cell-based; settings: unit assumed
[31] = tested on: E. coli J3272 TetC; assay: MIC, agar dilution (Table IA); type: cell-based; settings: unit assumed
[32] = tested on: S. aureus UBMS 88-5 (tetM); assay: MIC, agar dilution; type: cell-based; settings: S. aureus UBMS 88-5 TetM; Table IA; unit assumed
[33] = tested on: S. aureus UBMS 90-2 (tetM); assay: MIC, agar dilution; type: cell-based; settings: S. aureus UBMS 90-2 TetM; Table IA; unit assumed
[34] = tested on: E. coli J3272 Tet sens.; assay: MIC, agar dilution (Table IA); type: cell-based; settings: unit assumed

Row | SMILES | Antibacterial activity (MIC) [1] [µg/mL] | Antibacterial activity (MIC) [2] [µg/mL] | Antibacterial activity (MIC) [3] [µg/mL] | Antibacterial activity (MIC) [4] [µg/mL] | Antibacterial activity (MIC) [5] [µg/mL] | Antibacterial activity (MIC) [6] [µg/mL] | Antibacterial activity (MIC) [7] [µg/mL] | Antibacterial activity (MIC) [8] [µg/mL] | Antibacterial activity (MIC) [10] [µg/mL] | Antibacterial activity (MIC) [11] [µg/mL] | Antibacterial activity (MIC) [12] [µg/mL] | Antibacterial activity (MIC) [13] [µg/mL] | Antibacterial activity (MIC) [14] [µg/mL] | Antibacterial activity (MIC) [15] [µg/mL] | Antibacterial activity (MIC) [16] [µg/mL] | Antibacterial activity (MIC) [17] [µg/mL] | Antibacterial activity (MIC) [18] [µg/mL] | Antibacterial activity (MIC) [19] [µg/mL] | Antibacterial activity (MIC) [20] [µg/mL] | Antibacterial activity (MIC) [21] [µg/mL] | also measured
1 | CC(C(=O)Nc1cc(N(C)C)c2c(c1O)C(=O)C1=C(O)C3(O)C(=O)C(C(N)=O)=C(O)C(N(C)C)C3CC1C2)N1CCCC1.Cl.Cl (stereo not drawn) [AAA, [7S-(7alpha,10aalpha)]-N-[9-(Aminocarbonyl)-4,7-bis(dimethylamino)-5,5a,6,6a,7,10,10a,12-octahydro-1,8,10a,11-tetrahydroxy-10,12-dioxo-2-naphthacenyl)-alpha-methyl-1-pyrrolidineacetamide dihydrochloride] | 0.5 | 0.25 | 0.12 | 0.12 | 0.12 | 0.5 | > 32 | 0.06 | 0.25 | 0.12 | 0.5 | 0.12 | 4 | 0.12 | 2 | 0.25 | 0.5 | 0.5 | 0.25 | 0.5 | ED50 [9]: >16 mg/kg; Antibacterial activity (MIC) [22]: 0.5 µg/mL; Antibacterial activity (MIC) [23]: 0.25 µg/mL; Antibacterial activity (MIC) [24]: 0.5 µg/mL; Antibacterial activity (MIC) [25]: 0.5 µg/mL; Antibacterial activity (MIC) [26]: 0.5 µg/mL; Antibacterial activity (MIC) [27]: 0.5 µg/mL; Antibacterial activity (MIC) [28]: 0.25 µg/mL; Antibacterial activity (MIC) [29]: 0.5 µg/mL; Antibacterial activity (MIC) [30]: 0.5 µg/mL; Antibacterial activity (MIC) [31]: 0.5 µg/mL; Antibacterial activity (MIC) [32]: 0.25 µg/mL; Antibacterial activity (MIC) [33]: 0.25 µg/mL
2 | CN(C)c1cc(NC(=O)CNCC(=O)O)c(O)c2c1CC1CC3C(N(C)C)C(O)=C(C(N)=O)C(=O)C3(O)C(O)=C1C2=O (stereo not drawn) [KKK] | > 32 | 32 | > 32 | 32 | > 32 | > 32 | > 32 | 16 | > 32 | 16 | > 32 | > 32 | > 32 | 32 | > 32 | 16 | > 32 | > 32 | 32 | > 32 | Antibacterial activity (MIC) [34]: > 32 µg/mL; Antibacterial activity (MIC) [22]: > 32 µg/mL; Antibacterial activity (MIC) [23]: 16 µg/mL; Antibacterial activity (MIC) [24]: > 32 µg/mL; Antibacterial activity (MIC) [25]: > 32 µg/mL; Antibacterial activity (MIC) [26]: > 32 µg/mL; Antibacterial activity (MIC) [27]: > 32 µg/mL; Antibacterial activity (MIC) [28]: > 32 µg/mL; Antibacterial activity (MIC) [29]: > 32 µg/mL; Antibacterial activity (MIC) [30]: > 32 µg/mL; Antibacterial activity (MIC) [31]: > 32 µg/mL; Antibacterial activity (MIC) [32]: > 32 µg/mL; Antibacterial activity (MIC) [33]: 32 µg/mL
